Test system: INS1 cells
Experiment: RNAseq of INS1 cells grown in chronic high glucose compared to controls and stimulated with FSK (Table 2)
Type: cell-based, rat
Conditions: Low glucose
Description: INS-1 insulinoma cells were cultured in RPMI (corning cellgro) containing 10% fetal bovine serum (Gemini Bio Products), 100 μg/mL penicillin-streptomycin and 1 mM sodium pyruvate (corning cellgro). MIN6 cells were grown in DMEM (corning cellgro) with 10% FBS, 100 μg/mL penicillin-streptomycin and 70 uM beta-mercaptoethanol. For chronic glucose experiments, cells were maintained under low (2.8 mM) or high (20 mM) glucose for 3 days. Exendin-4 (10 nM), Forskolin (10 μM), KCl (40 mM), DMOG (1 mM) and rapamycin (50 nM) were added to cells as indicated. Cellular cAMP levels were measured using an ELISA kit (Cayman Chemical Company) according to manufacturer's instructions. Total RNAs from cells or primary islets were extracted using Trizol and cDNA was generated using the Transcriptor First Strand cDNA Synthesis kit (Roche Applied Science). cDNAs were quantified on a lightcycler 480 instrument (Roche Applied Science). Gene expression data were presented relative to the expression of housekeeping gene L32 (rat samples) and 18S (mouse and human islets). RNA-Seq libraries were prepared using the mRNA isolation protocol and the NEBNext-Ultra kits from New England Biolabs following the manufacturer's protocols. Libraries were quantitated by Qubit (Invitrogen), and run on a MiSeq instrument with paired-end 75 bp reads using v3 chemistry (Illumina) Data were analyzed by tophat2 and cuffdiff against the mouse mm10 genome build. The GEO accession number for RNAseq studies reported in the paper is GSE60158.

In the case of C=C[C@@]1(C)CC(=O)[C@]2(O)[C@@]3(C)[C@@H](O)CCC(C)(C)[C@@H]3[C@H](O)[C@H](OC(C)=O)[C@@]2(C)O1 [FSK, Forskolin], the “Agt RNAseq value” (FSK) is reported as 5.2, the “Ahi1 RNAseq value” (FSK) is reported as 32.6 and the “Bhlha15 RNAseq value” (FSK) is reported as 63.9. The “Btg3 RNAseq value” (FSK) was 145.9, the “Bysl RNAseq value” (FSK) was 56.1 and the “Canx RNAseq value” (FSK) was 241.6. For the same compound, the “Ccni RNAseq value” (FSK) was 242.1, the “Chd1 RNAseq value” (FSK) was 20.8 and the “Chrne RNAseq value” (FSK) was 0.2. For the same compound, the “Ctf1 RNAseq value” (FSK) was 0.2, the “Cxcl2 RNAseq value” (FSK) was 1.0 and the “Cyth3 RNAseq value” (FSK) was 30.7. For the same compound, the “Dkc1 RNAseq value” (FSK) was 87.8, the “Epha3 RNAseq value” (FSK) was 0.1 and the “Epor RNAseq value” (FSK) was 0.2. The “Fam49a RNAseq value” (FSK) was 0.2, the “Ficd RNAseq value” (FSK) was 89.9 and the “Fmc1 RNAseq value” (FSK) was 26.0. For the same compound, the “Fn1 RNAseq value” (FSK) was 852.9, the “Gabre RNAseq value” (FSK) was 0.1 and the “Gars RNAseq value” (FSK) was 439.6. For the same compound, the “Ggt5 RNAseq value” (FSK) was 0.3, the “Gnl3 RNAseq value” (FSK) was 31.0 and the “Gnmt RNAseq value” (FSK) was 0.4. The “Gzmm RNAseq value” (FSK) was 0.4, the “Hmcn1 RNAseq value” (FSK) was 0.0 and the “Hmga2 RNAseq value” (FSK) was 0.5. The “Hnrnpa1 RNAseq value” (FSK) was 34.2, the “Hnrpdl RNAseq value” (FSK) was 160.1 and the “Hs3st2 RNAseq value” (FSK) was 0.6. The “Hspa4 RNAseq value” (FSK) was 138.6, the “Hspd1 RNAseq value” (FSK) was 47.6 and the “Icam2 RNAseq value” (FSK) was 0.2. For the same compound, the “Il13ra1 RNAseq value” (FSK) was 0.3, the “Il28ra RNAseq value” (FSK) was 10.0 and the “Kcnb1 RNAseq value” (FSK) was 48.7. The “Kcnj13 RNAseq value” (FSK) was 1.4, the “Kdm1b RNAseq value” (FSK) was 9.1 and the “Kif9 RNAseq value” (FSK) was 0.3. For the same compound, the “LOC683722 RNAseq value” (FSK) was 12.3, the “LOC686295 RNAseq value” (FSK) was 4.9 and the “LOC689959 RNAseq value” (FSK) was 17.9. The “Lrfn5 RNAseq value” (FSK) was 0.1, the “Map3k4 RNAseq value” (FSK) was 25.4 and the “Mef2d RNAseq value” (FSK) was 146.0. For the same compound, the “Megf10 RNAseq value” (FSK) was 0.1, the “Msn RNAseq value” (FSK) was 1.2 and the “Myof RNAseq value” (FSK) was 0.0. For the same compound, the “Nckap1l RNAseq value” (FSK) was 0.2, the “Nkx2-2 RNAseq value” (FSK) was 192.1 and the “Nolc1 RNAseq value” (FSK) was 183.8. The “Notch4 RNAseq value” (FSK) was 0.9, the “Ormdl3 RNAseq value” (FSK) was 286.8 and the “Otop3 RNAseq value” (FSK) was 0.1. For the same compound, the “Pabpc6 RNAseq value” (FSK) was 0.1, the “Pde3b RNAseq value” (FSK) was 103.8 and the “Pde4dip RNAseq value” (FSK) was 61.8. The “Pdrg1 RNAseq value” (FSK) was 43.4, the “Plcb2 RNAseq value” (FSK) was 0.1 and the “RGD1309079 RNAseq value” (FSK) was 1.1. For the same compound, the “RGD1311084 RNAseq value” (FSK) was 0.2, the “Rab3gap2 RNAseq value” (FSK) was 53.1 and the “Rab11fip1 RNAseq value” (FSK) was 11.0. For the same compound, the “Rap2a RNAseq value” (FSK) was 13.5, the “Rho RNAseq value” (FSK) was 0.2 and the “Rpl7a RNAseq value” (FSK) was 0.4. The “Rpl17 RNAseq value” (FSK) was 117.5, the “Rrs1 RNAseq value” (FSK) was 38.4 and the “Sgce RNAseq value” (FSK) was 0.2. For the same compound, the “Smad1 RNAseq value” (FSK) was 48.4, the “Smad3 RNAseq value” (FSK) was 5.7 and the “Snapc1 RNAseq value” (FSK) was 4.6. The “Sncaip RNAseq value” (FSK) was 7.4, the “Spon2 RNAseq value” (FSK) was 0.7 and the “Srp54 RNAseq value” (FSK) was 40.0. The “Stard8 RNAseq value” (FSK) was 0.3, the “Syp RNAseq value” (FSK) was 744.1 and the “T2 RNAseq value” (FSK) was 0.2. For the same compound, the “Taf1a RNAseq value” (FSK) was 9.0, the “Tex38 RNAseq value” (FSK) was 0.5 and the “Tmem114 RNAseq value” (FSK) was 0.2. The “Tomm20 RNAseq value” (FSK) was 90.1, the “Tpp2 RNAseq value” (FSK) was 12.0 and the “Twistnb RNAseq value” (FSK) was 8.1. The “Usp9x RNAseq value” (FSK) was 56.0, the “Vps37b RNAseq value” (FSK) was 52.0 and the “Zfp830 RNAseq value” (FSK) was 20.4. The “Zfp385d RNAseq value” (FSK) was 0.2, the “Accsl Fold” value (FSK/control) was 2.0 and the “Acpt Fold” value (FSK/control) was 2.0. The “Acsl4 Fold” value (FSK/control) was 2.0, the “Agt Fold” value (FSK/control) was 2.0 and the “Ahi1 Fold” value (FSK/control) was 2.0. The “Bhlha15 Fold” value (FSK/control) was 2.0, the “Btg3 Fold” value (FSK/control) was 2.0 and the “Bysl Fold” value (FSK/control) was 2.0. For the same compound, the “Canx Fold” value (FSK/control) was 2.0, the “Ccni Fold” value (FSK/control) was 2.0 and the “Chd1 Fold” value (FSK/control) was 2.0. For the same compound, the “Chrne Fold” value (FSK/control) was 2.0, the “Ctf1 Fold” value (FSK/control) was 2.0 and the “Cxcl2 Fold” value (FSK/control) was 2.0. The “Cyth3 Fold” value (FSK/control) was 2.0, the “Dkc1 Fold” value (FSK/control) was 2.0 and the “Epha3 Fold” value (FSK/control) was 2.0. For the same compound, the “Epor Fold” value (FSK/control) was 2.0, the “Fam49a Fold” value (FSK/control) was 2.0 and the “Ficd Fold” value (FSK/control) was 2.0. The “Fmc1 Fold” value (FSK/control) was 2.0, the “Fn1 Fold” value (FSK/control) was 2.0 and the “Gabre Fold” value (FSK/control) was 2.0. For the same compound, the “Gars Fold” value (FSK/control) was 2.0, the “Ggt5 Fold” value (FSK/control) was 2.0 and the “Gnl3 Fold” value (FSK/control) was 2.0. For the same compound, the “Gnmt Fold” value (FSK/control) was 2.0, the “Gzmm Fold” value (FSK/control) was 2.0 and the “Hmcn1 Fold” value (FSK/control) was 2.0. The “Hmga2 Fold” value (FSK/control) was 2.0, the “Hnrnpa1 Fold” value (FSK/control) was 2.0 and the “Hnrpdl Fold” value (FSK/control) was 2.0. The “Hs3st2 Fold” value (FSK/control) was 2.0, the “Hspa4 Fold” value (FSK/control) was 2.0 and the “Hspd1 Fold” value (FSK/control) was 2.0. The “Icam2 Fold” value (FSK/control) was 2.0, the “Il13ra1 Fold” value (FSK/control) was 2.0 and the “Il28ra Fold” value (FSK/control) was 2.0. The “Kcnb1 Fold” value (FSK/control) was 2.0, the “Kcnj13 Fold” value (FSK/control) was 2.0 and the “Kdm1b Fold” value (FSK/control) was 2.0. The “Kif9 Fold” value (FSK/control) was 2.0, the “LOC683722 Fold” value (FSK/control) was 2.0 and the “LOC686295 Fold” value (FSK/control) was 2.0. For the same compound, the “LOC689959 Fold” value (FSK/control) was 2.0, the “Lrfn5 Fold” value (FSK/control) was 2.0 and the “Map3k4 Fold” value (FSK/control) was 2.0. The “Mef2d Fold” value (FSK/control) was 2.0, the “Megf10 Fold” value (FSK/control) was 2.0 and the “Msn Fold” value (FSK/control) was 2.0. For the same compound, the “Myof Fold” value (FSK/control) was 2.0, the “Nckap1l Fold” value (FSK/control) was 2.0 and the “Nkx2-2 Fold” value (FSK/control) was 2.0. For the same compound, the “Nolc1 Fold” value (FSK/control) was 2.0, the “Notch4 Fold” value (FSK/control) was 2.0 and the “Ormdl3 Fold” value (FSK/control) was 2.0. For the same compound, the “Otop3 Fold” value (FSK/control) was 2.0, the “Pabpc6 Fold” value (FSK/control) was 2.0 and the “Pde3b Fold” value (FSK/control) was 2.0. For the same compound, the “Pde4dip Fold” value (FSK/control) was 2.0, the “Pdrg1 Fold” value (FSK/control) was 2.0 and the “Plcb2 Fold” value (FSK/control) was 2.0. The “RGD1309079 Fold” value (FSK/control) was 2.0, the “RGD1311084 Fold” value (FSK/control) was 2.0 and the “Rab3gap2 Fold” value (FSK/control) was 2.0. The “Rab11fip1 Fold” value (FSK/control) was 2.0, the “Rap2a Fold” value (FSK/control) was 2.0 and the “Rho Fold” value (FSK/control) was 2.0. For the same compound, the “Rpl7a Fold” value (FSK/control) was 2.0, the “Rpl17 Fold” value (FSK/control) was 2.0 and the “Rrs1 Fold” value (FSK/control) was 2.0. For the same compound, the “Sgce Fold” value (FSK/control) was 2.0, the “Smad1 Fold” value (FSK/control) was 2.0 and the “Smad3 Fold” value (FSK/control) was 2.0. For the same compound, the “Snapc1 Fold” value (FSK/control) was 2.0, the “Sncaip Fold” value (FSK/control) was 2.0 and the “Spon2 Fold” value (FSK/control) was 2.0. For the same compound, the “Srp54 Fold” value (FSK/control) was 2.0, the “Stard8 Fold” value (FSK/control) was 2.0 and the “Syp Fold” value (FSK/control) was 2.0. The “T2 Fold” value (FSK/control) was 2.0, the “Taf1a Fold” value (FSK/control) was 2.0 and the “Tex38 Fold” value (FSK/control) was 2.0. For the same compound, the “Tmem114 Fold” value (FSK/control) was 2.0, the “Tomm20 Fold” value (FSK/control) was 2.0 and the “Tpp2 Fold” value (FSK/control) was 2.0. For the same compound, the “Twistnb Fold” value (FSK/control) was 2.0, the “Usp9x Fold” value (FSK/control) was 2.0 and the “Vps37b Fold” value (FSK/control) was 2.0. For the same compound, the “Zfp830 Fold” value (FSK/control) was 2.0 and the “Zfp385d Fold” value (FSK/control) was 2.0.
